Measurements published in patent US20180000085A1, “USE OF PICOLINAMIDE COMPOUNDS WITH FUNGICIDAL ACTIVITY” (DOW AGROSCIENCES LLC, priority 2014, published 2018).

Legend:
[1] = test system: Zymoseptoria tritici; assay: Leaf blotch of wheat (SEPTTR) disease control on wheat seedlings; assay type: in vivo; design: key to SEPTTR 1DP, HV activity at 100 ppm (% control rating) / SEPTTR 3DC, HV activity at 100 ppm (% control rating) / SEPTTR disease control, 1DP / SEPTTR disease control, 3DC / SEPTTR 1DP disease control rating, HV activity / SEPTTR 3DC disease control rating, HV activity / SEPTTR 3DC, LV activity at 125.1 g/H (% Control rating) / SEPTTR 1DP, LV activity at 125.1 g/H (% Control rating) / SEPTTR 1DP disease control rating, LV activity at 125.1 g/H / SEPTTR 3DC disease control rating, LV activity at 125.1 g/H / SEPTTR 3DC disease control rating, HV activity at 100 ppm / SEPTTR 1DP disease control rating, HV activity at 100 ppm / HV activity at 100 ppm SEPTTR 3DC (disease control rating) / HV activity at 100 ppm SEPTTR 1DP (disease control rating) / LV activity at 125.1 g/H SEPTTR 1DP (disease control rating) / LV activity at 125.1 g/H SEPTTR 3DC (disease control rating): A: > 80; B: ≤ 80; C: Not Tested; D: No Activity Observed in the Reported Assay; conditions: low volume application, 125.1 g/H; for SEPTTR 1DP, LV activity at 125.1 g/H (% Control rating): 1 Day Protectant; for SEPTTR 3DC, LV activity at 125.1 g/H (% Control rating): 3 Day Curative
[2] = test system: Puccinia triticina; assay: Wheat brown rust (PUCCRT) disease control on wheat seedlings; assay type: in vivo; conditions: low volume application, 125.1 g/H; for PUCCRT 1DP, LV activity at 125.1 g/H (% Control rating): 1 Day Protectant; for PUCCRT 3DC, LV activity at 125.1 g/H (% Control rating): 3 Day Curative

| SMILES | SEPTTR 1DP, LV activity at 125.1 g/H (% Control rating) [1] | SEPTTR 3DC, LV activity at 125.1 g/H (% Control rating) [1] | PUCCRT 1DP, LV activity at 125.1 g/H (% Control rating) [2] | PUCCRT 3DC, LV activity at 125.1 g/H (% Control rating) [2] |
| --- | --- | --- | --- | --- |
| CCC(CC)[C@@H](Oc1cccc(F)c1)[C@H](C)OC(=O)[C@H](C)NC(=O)c1nccc(OC)c1OCOC(C)=O [Cmpd 586] | B (≤ 80) | A (> 80) | A (> 80) | A (> 80) |
| CCC(CC)[C@@H](Oc1ccc(Cl)cc1Cl)[C@H](C)OC(=O)[C@H](C)NC(=O)c1nccc(OC)c1OCOC(C)=O [Cmpd 590] | B (≤ 80) | B (≤ 80) | A (> 80) | B (≤ 80) |
| CCC(CC)[C@@H](Oc1cc(F)ccc1F)[C@H](C)OC(=O)[C@H](C)NC(=O)c1nccc(OC)c1OCOC(C)=O [Cmpd 591] | B (≤ 80) | A (> 80) | A (> 80) | A (> 80) |
| CCC(CC)[C@@H](Oc1ccc(C(F)(F)F)cc1)[C@H](C)OC(=O)[C@H](C)NC(=O)c1nccc(OC)c1OCOC(C)=O [Cmpd 594] | A (> 80) | B (≤ 80) | A (> 80) | A (> 80) |
| CCC(CC)[C@@H](Oc1cccc(-c2ccccc2)c1)[C@H](C)OC(=O)[C@H](C)NC(=O)c1nccc(OC)c1OCOC(C)=O [Cmpd 595] | A (> 80) | A (> 80) | A (> 80) | B (≤ 80) |
| CCC(CC)[C@@H](Oc1ccc(-c2ccccc2)cc1)[C@H](C)OC(=O)[C@H](C)NC(=O)c1nccc(OC)c1OCOC(C)=O [Cmpd 596] | A (> 80) | B (≤ 80) | A (> 80) | B (≤ 80) |
| CCC(CC)[C@@H](Oc1ccc(Cl)cc1Cl)[C@H](C)OC(=O)[C@H](C)NC(=O)c1nccc(OC)c1OC(C)=O [Cmpd 601] | B (≤ 80) | B (≤ 80) | A (> 80) | B (≤ 80) |
| CCC(CC)[C@@H](Oc1cc(F)ccc1F)[C@H](C)OC(=O)[C@H](C)NC(=O)c1nccc(OC)c1OC(C)=O [Cmpd 602] | A (> 80) | A (> 80) | A (> 80) | A (> 80) |
| CCC(CC)[C@@H](Oc1cc(F)cc(Cl)c1)[C@H](C)OC(=O)[C@H](C)NC(=O)c1nccc(OC)c1OC(C)=O [Cmpd 603] | A (> 80) | A (> 80) | A (> 80) | A (> 80) |
| CCC(CC)[C@@H](Oc1ccc(C(F)(F)F)cc1)[C@H](C)OC(=O)[C@H](C)NC(=O)c1nccc(OC)c1OC(C)=O [Cmpd 605] | A (> 80) | B (≤ 80) | A (> 80) | B (≤ 80) |
| CCC(CC)[C@@H](Oc1cccc(-c2ccccc2)c1)[C@H](C)OC(=O)[C@H](C)NC(=O)c1nccc(OC)c1OC(C)=O [Cmpd 606] | A (> 80) | B (≤ 80) | A (> 80) | B (≤ 80) |
| CCC(CC)[C@@H](Oc1ccc(-c2ccccc2)cc1)[C@H](C)OC(=O)[C@H](C)NC(=O)c1nccc(OC)c1OC(C)=O [Cmpd 607] | A (> 80) | B (≤ 80) | A (> 80) | B (≤ 80) |
| COc1ccnc(C(=O)N[C@@H](C)C(=O)O[C@@H](C)[C@H](Oc2ccc(-c3ccccc3)cc2)C(C)C)c1OCOC(C)=O [Cmpd 612] | D | B (≤ 80) | A (> 80) | B (≤ 80) |
| COc1ccnc(C(=O)N[C@@H](C)C(=O)O[C@@H](C)[C@H](Oc2cccc(-c3ccccc3)c2)C(C)C)c1OCOC(C)=O [Cmpd 613] | B (≤ 80) | B (≤ 80) | A (> 80) | A (> 80) |
| COc1ccnc(C(=O)N[C@@H](C)C(=O)O[C@@H](C)[C@H](Oc2ccc(C(F)(F)F)cc2)C(C)C)c1OCOC(C)=O [Cmpd 618] | B (≤ 80) | A (> 80) | A (> 80) | A (> 80) |
| CC[C@H](C)[C@H](NC(=O)c1nccc(OC)c1OCOC(C)=O)C(=O)O[C@@H](C)[C@H](Oc1cc(F)ccc1F)C(C)C [Cmpd 619] | D | D | A (> 80) | A (> 80) |
| CC[C@H](C)[C@H](NC(=O)c1nccc(OC)c1OCOC(C)=O)C(=O)O[C@@H](C)[C@H](Oc1ccc(C(F)(F)F)cc1)C(C)C [Cmpd 620] | D | B (≤ 80) | B (≤ 80) | B (≤ 80) |
| COc1ccnc(C(=O)N[C@@H](C)C(=O)O[C@@H](C)[C@H](Oc2ccc3ccccc3c2)C(C)C)c1OCOC(C)=O [Cmpd 622] | D | B (≤ 80) | A (> 80) | A (> 80) |
| COc1ccnc(C(=O)N[C@@H](C)C(=O)O[C@@H](C)[C@H](OC(=O)C(C)C)C(C)C)c1OCOC(C)=O [Cmpd 623] | D | B (≤ 80) | A (> 80) | A (> 80) |
| COc1ccnc(C(=O)N[C@H](C(=O)O[C@@H](C)[C@H](Oc2cccc3ccccc23)C(C)C)C(C)C)c1OCOC(C)=O [Cmpd 624] | B (≤ 80) | D | A (> 80) | A (> 80) |
| COc1ccnc(C(=O)N[C@@H](C)C(=O)O[C@@H](C)[C@H](Oc2ccc(-c3ccccc3)cc2)C(C)C)c1OC(C)=O [Cmpd 625] | D | D | A (> 80) | B (≤ 80) |
